According to patent US20120220562A1, “Anti-Viral Compounds” (ABBOTT LABAORATORIES, priority 2011, published 2012):

What follows are compounds tested on HCV 1b-Con1 replicon (assay: HCV 1b-Con1 replicon assay in the presence of 5% FBS). Conditions: Hepatitis C virus.
Format: cell-based
Work on `COC(=O)N[C@H](C(=O)N1CCC[C@H]1c1nc2cc([C@H]3CC[C@H](c4ccc5[nH]c([C@@H]6CCCN6C(=O)[C@@H](NC(=O)OC)C(C)C)nc5c4)N3c3cc(F)c(N4CCC(F)(F)CC4)c(F)c3)ccc2[nH]1)C(C)C` [Example 1.5, methyl {(2S)-1-[(2S)-2-{5-[(2R,5R)-1-[4-(4,4-difluoropiperidin-1-yl)-3,5-difluorophenyl]-5-{2-[(2S)-1-{(2S)-2-[(methoxycarbonyl)amino]-3-methylbutanoyl}pyrrolidin-2-yl]-1H-benzimidazol-5-yl}pyrrolidin-2-yl]-1H-benzimidazol-2-yl}pyrrolidin-1-yl]-3-methyl-1-oxobutan-2-yl}carbamate] yielded an EC50 of less than 0.1 nM. `COC(=O)N[C@H](C(=O)N1CCC[C@H]1c1nc2cc([C@H]3CC[C@H](c4cc5nc([C@@H]6CCCN6C(=O)[C@@H](NC(=O)OC)C(C)C)[nH]c5cc4F)N3c3cc(F)c(N4CCC(c5ccc(F)cc5F)CC4)c(F)c3)c(F)cc2[nH]1)C(C)C` [Example 4.56, methyl {(2S)-1-[(2S)-2-{5-[(2R,5R)-1-{4-[4-(2,4-difluorophenyl)piperidin-1-yl]-3,5-difluorophenyl}-5-{6-fluoro-2-[(2S)-1-{(2S)-2-[(methoxycarbonyl)amino]-3-methylbutanoyl}pyrrolidin-2-yl]-1H-benzimidazol-5-yl}pyrrolidin-2-yl]-6-fluoro-1H-benzimidazol-2-yl}pyrrolidin-1-yl]-3-methyl-1-oxobutan-2-yl}carbamate] showed an EC50 of less than 0.1 nM. `CCC1(COc2c(F)cc(N3[C@@H](c4ccc5nc([C@@H]6CCCN6C(=O)[C@@H](NC(=O)OC)C(C)C)[nH]c5c4)CC[C@@H]3c3ccc4nc([C@@H]5CCCN5C(=O)[C@@H](NC(=O)OC)C(C)C)[nH]c4c3)cc2F)COC1` [Example 2.5, methyl {(2S)-1-[(2S)-2-{6-[(2R,5R)-1-{4-[(3-ethyloxetan-3-yl)methoxy]-3,5-difluorophenyl}-5-{2-[(2S)-1-{(2S)-2-[(methoxycarbonyl)amino]-3-methylbutanoyl}pyrrolidin-2-yl]-1H-benzimidazol-6-yl}pyrrolidin-2-yl]-1H-benzimidazol-2-yl}pyrrolidin-1-yl]-3-methyl-1-oxobutan-2-yl}carbamate] was tested, and the EC50 was less than 0.1 nM. Compound `COC(=O)N[C@H](C(=O)N1CCC[C@H]1c1nc2cc([C@H]3CC[C@H](c4ccc5[nH]c([C@@H]6CCCN6C(=O)[C@@H](NC(=O)OC)C6CCOCC6)nc5c4)N3c3cc(F)c(N4CCCCC4)c(F)c3)ccc2[nH]1)C1CCOCC1` [Example 3.18, dimethyl ({(2R,5R)-1-[3,5-difluoro-4-(piperidin-1-yl)phenyl]pyrrolidine-2,5-diyl}bis{1H-benzimidazole-5,2-diyl(2S)pyrrolidine-2,1-diyl [(1S)-2-oxo-1-(tetrahydro-2H-pyran-4-yl)ethane-2,1-diyl]})biscarbamate] has an EC50 of less than 0.1 nM. In the case of `COC(=O)N[C@H](C(=O)N1CCC[C@H]1c1nc2cc([C@H]3CC[C@H](c4ccc5[nH]c([C@@H]6CCCN6C(=O)[C@@H](NC(=O)OC)C(C)C)nc5c4)N3c3cc(F)c(N4CCCCC4)c(F)c3F)ccc2[nH]1)C(C)C` [Example 4.7, methyl {(2S)-1-[(2S)-2-(5-{(2R,5R)-5-{2-[(2S)-1-{(2S)-2-[(methoxycarbonyl)amino]-3-methylbutanoyl}pyrrolidin-2-yl]-1H-benzimidazol-5-yl}-1-[2,3,5-trifluoro-4-(piperidin-1-yl)phenyl]pyrrolidin-2-yl}-1H-benzimidazol-2-yl)pyrrolidin-1-yl]-3-methyl-1-oxobutan-2-yl}carbamate], the EC50 is reported as less than 0.1 nM. Compound `COC(=O)N[C@H](C(=O)N1CCC[C@H]1c1nc2cc([C@H]3CC[C@H](c4cc5nc([C@@H]6CCCN6C(=O)[C@@H](NC(=O)OC)C(C)C)[nH]c5cc4F)N3c3cc(F)c(N4CCCCC4)c(F)c3)c(F)cc2[nH]1)C(C)C` [Example 6.10, methyl {(2S)-1-[(2S)-2-{5-[(2R,5R)-1-[3,5-difluoro-4-(piperidin-1-yl)phenyl]-5-{6-fluoro-2-[(2S)-1-{(2S)-2-[(methoxycarbonyl)amino]-3-methylbutanoyl}pyrrolidin-2-yl]-1H-benzimidazol-5-yl}pyrrolidin-2-yl]-6-fluoro-1H-benzimidazol-2-yl}pyrrolidin-1-yl]-3-methyl-1-oxobutan-2-yl}carbamate] has an EC50 of less than 0.1 nM. Work on `COC(=O)N[C@H](C(=O)N1CCC[C@H]1c1nc2cc([C@H]3CC[C@H](c4cc5nc([C@@H]6CCCN6C(=O)[C@@H](NC(=O)OC)C(C)C)[nH]c5cc4F)N3c3cc(F)c(N4CCC(F)(c5ccccc5)CC4)c(F)c3)c(F)cc2[nH]1)C(C)C` [Example 4.62, methyl {(2S)-1-[(2S)-2-{5-[(2R,5R)-1-[3,5-difluoro-4-(4-fluoro-4-phenylpiperidin-1-yl)phenyl]-5-{6-fluoro-2-[(2S)-1-{(2S)-2-[(methoxycarbonyl)amino]-3-methylbutanoyl}pyrrolidin-2-yl]-1H-benzimidazol-5-yl}pyrrolidin-2-yl]-6-fluoro-1H-benzimidazol-2-yl}pyrrolidin-1-yl]-3-methyl-1-oxobutan-2-yl}carbamate] yielded an EC50 of less than 0.1 nM. Work on `COC(=O)N[C@H](C(=O)N1C[C@@H](OC)C[C@H]1c1nc2cc([C@H]3CC[C@H](c4ccc5[nH]c([C@@H]6C[C@H](OC)CN6C(=O)[C@@H](NC(=O)OC)C(C)C)nc5c4)N3c3ccc(F)cc3)ccc2[nH]1)C(C)C` [Example 3.10, methyl {(2S)-1-[(2S,4S)-2-{5-[(2R,5R)-1-(4-fluorophenyl)-5-{2-[(2S,4S)-4-methoxy-1-{(2S)-2-[(methoxycarbonyl)amino]-3-methylbutanoyl}pyrrolidin-2-yl]-1H-benzimidazol-5-yl}pyrrolidin-2-yl]-1H-benzimidazol-2-yl}-4-methoxypyrrolidin-1-yl]-3-methyl-1-oxobutan-2-yl}carbamate] yielded an EC50 of 0.1 to 1 nM. For `COC(=O)N[C@H](C(=O)N1[C@H](c2nc3cc([C@H]4CC[C@H](c5ccc6[nH]c([C@@H]7C[C@@H]8CCC[C@@H]8N7C(=O)[C@@H](NC(=O)OC)[C@@H](C)OC)nc6c5)N4c4cc(F)c(N5CCCCC5)c(F)c4)ccc3[nH]2)C[C@@H]2CCC[C@@H]21)C(C)C` [Example 10.2, methyl {(2S,3R)-1-[(2S,3aS,6aS)-2-{5-[(2R,5R)-1-[3,5-difluoro-4-(piperidin-1-yl)phenyl]-5-{2-[(2S,3aS,6aS)-1-{(2S)-2-[(methoxycarbonyl)amino]-3-methylbutanoyl}octahydrocyclopenta[b]pyrrol-2-yl]-1H-benzimidazol-5-yl}pyrrolidin-2-yl]-1H-benzimidazol-2-yl}hexahydrocyclopenta[b]pyrrol-1(2H)-yl]-3-methoxy-1-oxobutan-2-yl}carbamate], the EC50 was less than 0.1 nM. `COC(=O)N[C@H](C(=O)N1CCC[C@H]1c1nc2ccc([C@H]3CC[C@H](c4ccc5nc([C@@H]6CCCN6C(=O)[C@@H](NC(=O)OC)C(C)C)[nH]c5c4)N3c3ccc(S(F)(F)(F)(F)F)cc3)cc2[nH]1)C(C)C` [Example 4.13, methyl {(2S)-1-[(2S)-2-(6-{(2R,5R)-5-{2-[(2S)-1-{(2S)-2-[(methoxycarbonyl)amino]-3-methylbutanoyl}pyrrolidin-2-yl]-1H-benzimidazol-6-yl}-1-[4-(pentafluoro-lambda˜6˜-sulfanyl)phenyl]pyrrolidin-2-yl}-1H-benzimidazol-2-yl)pyrrolidin-1-yl]-3-methyl-1-oxobutan-2-yl}carbamate] was tested, and the EC50 was less than 0.1 nM. Compound `COC(=O)N[C@H](C(=O)N1CCC[C@H]1c1nc2c(Cl)c([C@H]3CC[C@H](c4ccc5[nH]c([C@@H]6CCCN6C(=O)[C@@H](NC(=O)OC)C(C)C)nc5c4Cl)N3c3ccc(C(C)(C)C)cc3)ccc2[nH]1)C(C)C` [Example 6.5, methyl {(2S)-1-[(2S)-2-{5-[(2R,5R)-1-(4-tert-butylphenyl)-5-{4-chloro-2-[(2S)-1-{(2S)-2-[(methoxycarbonyl)amino]-3-methylbutanoyl}pyrrolidin-2-yl]-1H-benzimidazol-5-yl}pyrrolidin-2-yl]-4-chloro-1H-benzimidazol-2-yl}pyrrolidin-1-yl]-3-methyl-1-oxobutan-2-yl}carbamate] has an EC50 of less than 0.1 nM. `COC(=O)N[C@H](C(=O)N1CCC[C@H]1C(=O)Nc1ccc(C2CC[C@@H](c3ccc(NC(=O)[C@@H]4CCCN4C(=O)[C@@H](NC(=O)OC)C(C)C)cc3)N2c2cc(F)c(N3CCC(c4ccccc4)CC3)c(F)c2)cc1)C(C)C` (stereo partly drawn) [Example 8, dimethyl ({(2S)-1-[3,5-difluoro-4-(4-phenylpiperidin-1-yl)phenyl]pyrrolidine-2,5-diyl}bis{4,1-phenylenecarbamoyl(2S)pyrrolidine-2,1-diyl[(2S)-3-methyl-1-oxobutane-1,2-diyl]})biscarbamate] was tested, and the EC50 was less than 0.1 nM. `COC(=O)N[C@H](C(=O)N1CCC[C@H]1c1nc2ccc([C@H]3CC[C@H](c4ccc5nc([C@@H]6CCCN6C(=O)[C@@H](NC(=O)OC)C(C)C)[nH]c5c4)N3c3cc(F)c(N4CCC(c5ccc([Si](C)(C)C)cc5)CC4)c(F)c3)cc2[nH]1)C(C)C` [Example 2.14, methyl {(2S)-1-[(2S)-2-{5-[(2R,5R)-1-(3,5-difluoro-4-{4-[4-(trimethylsilyl)phenyl]piperidin-1-yl}phenyl)-5-{2-[(2S)-1-{(2S)-2-[(methoxycarbonyl)amino]-3-methylbutanoyl}pyrrolidin-2-yl]-1H-benzimidazol-5-yl}pyrrolidin-2-yl]-1H-benzimidazol-2-yl}pyrrolidin-1-yl]-3-methyl-1-oxobutan-2-yl}carbamate] gave an EC50 of less than 0.1 nM. `COC(=O)N[C@H](C(=O)N1CCC[C@H]1c1nc2cc([C@H]3CC[C@H](c4ccc5[nH]c([C@@H]6CCCN6C(=O)[C@@H](NC(=O)OC)C(C)C)nc5c4)N3c3ccc(Oc4ccccc4)cc3)ccc2[nH]1)C(C)C` [Example 1.1, methyl {(2S)-1-[(2S)-2-{5-[(2R,5R)-5-{2-[(2S)-1-{(2S)-2-[(methoxycarbonyl)amino]-3-methylbutanoyl}pyrrolidin-2-yl]-1H-benzimidazol-5-yl}-1-(4-phenoxyphenyl)pyrrolidin-2-yl]-1H-benzimidazol-2-yl}pyrrolidin-1-yl]-3-methyl-1-oxobutan-2-yl}carbamate] gave an EC50 of less than 0.1 nM.
